This note sets out measurements from patent US12624034B2, “Non-covalent modifiers of AKT1 and uses thereof” (Terremoto Biosciences, Inc., priority 2023, dated 2026).

pIC50: −log10 of the molar value. Read-outs that look alike come from different tables or passages of the source.

Common to all, as to type: binding
For one test, the target named is T1, AKT1 E17K (Homo sapiens, UniProt P31749, E17K).
T1 construct: expressed in transfected cells; host or cells: HEK293
Put plainly: Live cell AKT1 E17K target engagement by NanoBRET competitive probe displacement in HEK293 cells. The note with it: 2 h at 37° C. Here is the method: Determining live cell AKT1 E17K, AKT1 WT, and AKT2 target engagement by NanoBRET competitive probe displacement. Live cell target engagement assays were performed as described (Vasta, J. D. et al. Cell Chem Biol 2018, 25(11), 206-214). Briefly, HEK293 cells were transfected with plasmids encoding kinase-NanoLuciferase fusion proteins overnight. Cells were then treated with serial dilutions of compound and an ˜EC50 concentration of fluorescently-tagged ATP-competitive tracer (Promega). After incubation for 2 h at 37° C., luciferase substrate and extracellular luciferase inhibitor were added to all wells, and luminescent intensity at 460 nm and 600 nm were measured on a multimode plate-reader. The ratio of E600/E460 was calculated to give the tracer engagement signal (BRET). IC50 values were calculated by fitting BRET values to a log(inhibitor) vs. response Hill equation.
(In general: Bioluminescence resonance energy transfer reports proximity on the nanometre scale.)

For another test, the target named is T2, AKT1 WT (Homo sapiens, UniProt P31749).
T2 construct: expressed in transfected cells; host or cells: HEK293
Put plainly: Live cell AKT1 WT target engagement by NanoBRET competitive probe displacement in HEK293 cells. As to conditions: 2 h at 37° C., read-out: AKT1 WT IC50.

In another test the target is T3, AKT2 (Homo sapiens, UniProt P31751).
T3 construct: expressed in transfected cells; host or cells: HEK293
Nature of the test: Live cell AKT2 target engagement by NanoBRET competitive probe displacement in HEK293 cells. The note with it: 2 h at 37° C., read-out: AKT2 IC50.

[1] abbreviates: NanoBRET competitive probe displacement, live HEK293 cells.
The mark [2] stands for this setting: NanoBRET live cell target engagement, HEK293 cells.

T2 sequence (P31749 whole entry): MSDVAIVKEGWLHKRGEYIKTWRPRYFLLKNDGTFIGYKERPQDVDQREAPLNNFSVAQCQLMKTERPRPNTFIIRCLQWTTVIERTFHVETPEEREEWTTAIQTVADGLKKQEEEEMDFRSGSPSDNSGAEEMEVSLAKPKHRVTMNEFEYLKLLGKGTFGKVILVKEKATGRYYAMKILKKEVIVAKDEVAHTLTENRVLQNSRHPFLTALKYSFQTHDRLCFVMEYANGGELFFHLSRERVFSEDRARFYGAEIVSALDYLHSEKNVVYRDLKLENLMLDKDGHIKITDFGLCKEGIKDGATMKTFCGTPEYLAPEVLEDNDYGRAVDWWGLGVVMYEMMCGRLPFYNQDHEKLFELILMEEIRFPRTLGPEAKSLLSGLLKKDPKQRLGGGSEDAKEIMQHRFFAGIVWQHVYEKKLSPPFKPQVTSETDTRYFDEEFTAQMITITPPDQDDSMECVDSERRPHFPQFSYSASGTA
T1 sequence (P31749 whole entry E17K): as the sequence (P31749 whole entry) above, with E17K counted along it
T3 sequence (P31751 whole entry): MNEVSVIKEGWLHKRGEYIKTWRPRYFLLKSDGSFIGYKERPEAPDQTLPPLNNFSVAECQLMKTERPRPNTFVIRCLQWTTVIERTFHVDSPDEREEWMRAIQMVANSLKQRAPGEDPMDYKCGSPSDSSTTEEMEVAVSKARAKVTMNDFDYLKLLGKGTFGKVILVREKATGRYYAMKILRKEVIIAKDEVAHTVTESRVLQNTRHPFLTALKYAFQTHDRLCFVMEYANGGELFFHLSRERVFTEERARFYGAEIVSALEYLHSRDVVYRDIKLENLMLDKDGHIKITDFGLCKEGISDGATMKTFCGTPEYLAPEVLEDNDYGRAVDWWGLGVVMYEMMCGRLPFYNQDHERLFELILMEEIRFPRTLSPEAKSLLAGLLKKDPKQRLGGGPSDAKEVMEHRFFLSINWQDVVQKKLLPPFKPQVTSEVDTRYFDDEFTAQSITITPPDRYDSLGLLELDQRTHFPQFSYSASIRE

Turning to `N#Cc1nc(N2CCC(N[C@H]3CCc4cc(-n5c(-c6cccnc6N)nc6ccc(-n7cccn7)nc65)ccc43)CC2)cs1` [Compound 593], the pIC50 – broadly, −log10 of the IC50, conventionally taken in molar units – at AKT1 E17K (setting [1]) is 7.66; on AKT1 WT (setting [1]), 8.34; on AKT2 (setting [1]) it was 7.63.
As for `N#Cc1nc2c(c(N3CCC(N[C@H]4CCc5cc(-n6c(-c7cccnc7N)nc7ccc(-n8cccn8)nc76)ccc54)CC3)n1)CCC2` [Compound 603], the negative logarithm of the IC50 (pIC50) was 7.78 at AKT1 E17K (setting [1]), 8.12 on AKT1 WT (setting [1]) and 7.11 at AKT2 (setting [1]).
On to `CN1C(=O)CCC1CC(=O)N[C@H]1CCc2cc(-n3c(-c4cccnc4N)nc4ccc(-n5cccn5)nc43)ccc21` (mixture of isomers) [Compound 11, N—{(S)-5-[2-(2-amino-3-pyridyl)-5-(1-pyrazolyl)-3H-1,3,4-triazainden-3-yl]-1-indanyl}(1-methyl-5-oxo-2-pyrrolidinyl)acetamide], for which the pIC50 was less than 6.00 on AKT1 E17K (setting [2]), less than 6.00 at AKT1 WT (setting [2]) and less than 5.00 on AKT2 (setting [2]).
Turning to `C#CC1(OCC(=O)N[C@H]2CCc3cc(-n4c(-c5cccnc5N)nc5ccc(-n6cccn6)nc54)ccc32)COC1` [Compound 9, N—{(S)-5-[2-(2-amino-3-pyridyl)-5-(1-pyrazolyl)-3H-1,3,4-triazainden-3-yl]-1-indanyl}(3-ethynyl-3-oxetanyloxy)acetamide], the figures for the negative-log IC50 (pIC50) on AKT1 E17K (setting [2]), on AKT1 WT (setting [2]) and on AKT2 (setting [2]) were less than 6.00, less than 6.00 and 5.05, respectively.
As to `N#Cc1ncnc(N2CCC(N[C@H]3CCc4cc(-n5c(-c6cccnc6N)nc6ccc(-n7cccn7)nc65)ccc43)CC2)n1` [Compound 592], the figures for the pIC50 at AKT1 E17K (setting [1]), at AKT1 WT (setting [1]) and at AKT2 (setting [1]) were 8.26, 8.36 and 7.96, respectively.
For the compound `Cc1cnc(C#N)nc1N1CCC(N[C@H]2CCc3cc(-n4c(-c5cccnc5N)nc5ccc(-n6cccn6)nc54)ccc32)CC1` [Compound 585], the values for the pIC50 at AKT1 E17K (setting [1]), on AKT1 WT (setting [1]) and at AKT2 (setting [1]) were 8.08, 8.32 and 7.97, respectively.
On the same counts, the results for `N#Cc1nccc(C(=O)N2CCC(N[C@H]3CCc4cc(-n5c(-c6cccnc6N)nc6ccc(-n7cccn7)nc65)ccc43)CC2)n1` [Compound 580] are 7.94, 7.95 and 7.61.
In the case of `Nc1ncccc1-c1nc2ccc(-n3cccn3)nc2n1-c1ccc2c(c1)CC[C@@H]2NC1CCN(C(=O)[C@H]2C[C@@H]2F)CC1` [Compound 479], the negative-log IC50 (pIC50) at AKT1 WT (setting [1]) was 7.05; on AKT2 (setting [1]), less than 5.00.
As for `Nc1ncccc1-c1nc2ccc(-n3nccn3)nc2n1-c1ccc2c(c1)CC[C@@H]2NC(=O)c1ccns1` [Compound 413], the negative-log IC50 (pIC50) is 7.66 at AKT1 WT (setting [1]) and 5.83 on AKT2 (setting [1]).
On to `CC(=O)Nc1ccc(C(=O)N[C@H]2CCc3cc(-n4c(-c5cccnc5N)nc5ccc(-n6cccn6)nc54)ccc32)cc1F` [Compound 309], for which the negative logarithm of the IC50 (pIC50) at AKT1 WT (setting [2]) is 7.97; at AKT2 (setting [2]), 8.08.
Take `Cc1ccc(C(=O)N[C@H]2CCc3cc(-n4c(-c5cccnc5N)nc5ccc(-c6nc(C)co6)nc54)ccc32)cn1` [Compound 267]: the negative-log IC50 (pIC50) at AKT1 WT (setting [2]) is 7.84; at AKT2 (setting [2]) it was 6.54.
In the case of `Nc1ncccc1-c1nc2ccc(-n3cccn3)nc2n1-c1ccc2c(c1)CC[C@@H]2NC1CCN(C(=O)[C@@H]2CCO2)CC1` [Compound 424], the results for the negative logarithm of the IC50 (pIC50) at AKT1 WT (setting [1]) and at AKT2 (setting [1]) were 6.91 and 5.27, respectively.
In the case of `CC(C)NC(=O)N[C@H]1CCc2cc(-n3c(-c4cccnc4N)nc4ccc(-n5cccn5)nc43)ccc21` [Compound 134, (S)-1-(5-(2-(2-aminopyridin-3-yl)-5-(1H-pyrazol-1-yl)-3H-imidazo[4,5-b]pyridin-3-yl)-2,3-dihydro-1H-inden-1-yl)-3-isopropylurea], the pIC50 is less than 6.00 on AKT1 WT (setting [2]) and less than 5.00 at AKT2 (setting [2]).
As for `Nc1ncccc1-c1nc2ccc(-n3cccn3)nc2n1-c1ccc2c(c1)CC[C@@H]2NC(=O)c1cccc(CO)c1` [Compound 240], the pIC50 at AKT1 WT (setting [2]) was 8.24; at AKT2 (setting [2]), 7.23.
For the compound `Cc1ccc(C(=O)N[C@H]2CCc3cc(-n4c(-c5cccnc5N)nc5ccc(C#CC6CC6)nc54)ccc32)cn1` [Compound 435], the pIC50 on AKT1 WT (setting [1]) was 7.71; at AKT2 (setting [1]) it was 5.86.
`Cn1cc(Cc2nncn2[C@H]2CCc3cc(-n4c(-c5cccnc5N)nc5ccc(-n6cccn6)nc54)ccc32)cn1` [Compound 228]: the results for the negative-log IC50 (pIC50) at AKT1 WT (setting [2]) and at AKT2 (setting [2]) were 6.23 and 5.69, respectively.
As to `Nc1ncccc1-c1nc2ccc(-n3cccn3)nc2n1-c1ccc2c(c1)CC[C@@H]2N1CCCCC1` [Compound 342, (S)-3-(3-(1-(piperidin-1-yl)-2,3-dihydro-1H-inden-5-yl)-5-(1H-pyrazol-1-yl)-3H-imidazo[4,5-b]pyridin-2-yl)pyridin-2-amine], the negative-log IC50 (pIC50) at AKT1 WT (setting [2]) was 7.36; on AKT2 (setting [2]), 6.01.
On to `Nc1ncccc1-c1nc2ccc(-n3cccn3)nc2n1-c1ccc2c(c1)CC[C@@H]2NC(=O)c1ccc2[nH]c(=O)sc2c1` [Compound 233], for which the pIC50 was 7.91 at AKT1 WT (setting [2]) and 7.62 at AKT2 (setting [2]).
`Nc1ncccc1-c1nc2ccc(-n3cccn3)nc2n1-c1ccc2c(c1)CC[C@@H]2NC1CCN(c2ccccc2)C1` (stereo partly shown) [Compound 470]: the negative-log IC50 (pIC50) at AKT1 WT (setting [1]) is 7.17; at AKT2 (setting [1]), 6.11.
Regarding `COc1cc(-n2cccn2)nc2c1nc(-c1cccnc1N)n2-c1ccc2c(c1)CC[C@@H]2NC(=O)c1cccnc1C` [Compound 124], the pIC50 on AKT1 WT (setting [2]) was 7.86; at AKT2 (setting [2]), 7.26.
For the compound `Cc1ccc(C(C)N[C@H]2CCc3cc(-n4c(-c5cccnc5N)nc5ccc(-n6cccn6)nc54)ccc32)cn1` (stereo partly shown) [Compound 154], the pIC50 on AKT1 WT (setting [2]) was 6.29; on AKT2 (setting [2]), 5.50.
On to `Cc1ccc(S(=O)(=O)N[C@H]2CCc3cc(-n4c(-c5cccnc5N)nc5ccc(-n6cccn6)nc54)ccc32)cn1` [Compound 82], for which the negative-log IC50 (pIC50) on AKT1 WT (setting [2]) was 7.18; at AKT2 (setting [2]) it was 5.67.
With `Cc1ccc2nc(-c3cccnc3N)n(-c3ccc4c(c3)CC[C@@H]4NC(=O)c3ccc(C(F)F)nc3)c2n1` [Compound 146], the pIC50 on AKT1 WT (setting [2]) is 6.29; at AKT2 (setting [2]) it was less than 5.00.
In the case of `C#Cc1cc(-n2nccn2)nc2c1nc(-c1cccnc1N)n2-c1ccc2c(c1)CC[C@@H]2NC(=O)c1ccc(C(F)F)nc1` [Compound 583], the pIC50 at AKT1 WT (setting [1]) is 6.09; on AKT2 (setting [1]), 5.42.
Regarding `Nc1ncccc1-c1nc2ccc(-n3cccn3)nc2n1-c1ccc2c(c1)CC[C@@H]2NC1CC2(CCCN(c3ccccn3)C2)C1` (stereo partly shown) [Compound 468], the negative logarithm of the IC50 (pIC50) was 7.13 at AKT1 WT (setting [1]) and 5.71 at AKT2 (setting [1]).
On to `COc1cc(C(=O)N[C@H]2CCc3cc(-n4c(-c5cccnc5N)nc5ccc(-n6cccn6)nc54)ccc32)n(C)n1` [Compound 158], for which the negative logarithm of the IC50 (pIC50) at AKT1 WT (setting [2]) is 7.87; at AKT2 (setting [2]), 6.91.
In the case of `Cc1ncccc1C(=O)N[C@@H]1c2ccc(-n3c(-c4cccnc4N)nc4ccc(-n5cccn5)nc43)cc2CC1(F)F` [Compound 187], the pIC50 was 8.17 at AKT1 WT (setting [2]) and 7.67 on AKT2 (setting [2]).
Regarding `Nc1ncccc1-c1nc2ccc(-n3cccn3)nc2n1-c1ccc2c(c1)CC[C@@H]2NC(=O)c1ccnc(OC(F)F)c1` [Compound 202], the values for the pIC50 on AKT1 WT (setting [2]) and on AKT2 (setting [2]) were 8.25 and 7.53, respectively.
Take `Nc1ncccc1-c1nc2ccc(-n3cccn3)nc2n1-c1ccc2c(c1)CC[C@@H]2NC(=O)c1cc(C2CC2)c(O)c(C(F)(F)F)c1` [Compound 415]: the pIC50 was 8.53 at AKT1 WT (setting [1]) and 7.15 on AKT2 (setting [1]).
For the compound `Nc1ncccc1-c1nc2ccc(-n3ccc(OC(F)F)n3)nc2n1-c1ccc2c(c1)CC[C@@H]2NC(=O)c1cnc(C(F)F)s1` [Compound 534], the results for the negative-log IC50 (pIC50) at AKT1 WT (setting [1]) and on AKT2 (setting [1]) were 7.41 and 6.29, respectively.
On to `Nc1ncccc1-c1nc2ccc(-n3nccn3)nc2n1-c1ccc2c(c1)CC[C@@H]2NC(=O)c1cnc(C2CC2)s1` [Compound 520], for which the results for the negative logarithm of the IC50 (pIC50) on AKT1 WT (setting [1]) and at AKT2 (setting [1]) were 8.00 and 6.70, respectively.
In the case of `Nc1ncccc1-c1nc2ccc(-n3cccn3)nc2n1-c1ccc2c(c1)CC[C@@H]2NC(=O)c1cnc(C(F)F)nc1` [Compound 114], the negative-log IC50 (pIC50) on AKT1 WT (setting [2]) is 8.04; on AKT2 (setting [2]) it was 6.99.
`Nc1ncccc1-c1nc2ccc(-n3cccn3)nc2n1-c1ccc2c(c1)CC[C@@H]2NC(=O)c1cc2ncccn2n1` [Compound 176]: the negative-log IC50 (pIC50) was 7.61 on AKT1 WT (setting [2]) and 6.50 at AKT2 (setting [2]).
For `Nc1ncccc1-c1nc2ccc(-n3cccn3)nc2n1-c1ccc2c(c1)CC(F)C2NC1CCN(C(=O)C2CC2)CC1` (stereo not shown) [Compound 522], the pIC50 was 6.28 at AKT1 WT (setting [1]) and less than 5.00 at AKT2 (setting [1]).
Regarding `Cc1ccc(C(C)N[C@H]2CCc3cc(-n4c(-c5cccnc5N)nc5ccc(-n6cccn6)nc54)ccc32)cn1` (stereo partly shown) [Compound 153], the results for the pIC50 on AKT1 WT (setting [2]) and at AKT2 (setting [2]) were 6.92 and 5.65, respectively.
On to `Cc1cc(C(=O)N[C@H]2CCc3cc(-n4c(-c5cccnc5N)nc5ccc(-n6cccn6)nc54)ccc32)c(C)nc1C` [Compound 150], for which the pIC50 is 7.74 on AKT1 WT (setting [2]) and 6.97 on AKT2 (setting [2]).
